Assay results reported in ChEMBL document CHEMBL5614367, “Hydroxamic acid hybrids: Histone deacetylase inhibitors with anticancer therapeutic potency” (Eur J Med Chem, 2023).

Columns and labels:
SW-620 = assay: Antiproliferative activity against human SW620 cells incubated for 72 hrs by colorimetric method; assay type: functional, cell-based; settings: SW-620, 72 h
Histone deacetylase = assay: Inhibition of HDAC (unknown origin); assay type: protein assay, Homo sapiens
NCI-H23 = assay: Antiproliferative activity against human NCI-H23 cells incubated for 72 hrs by colorimetric method; assay type: functional, cell-based; settings: NCI-H23, 72 h
PC-3 = assay: Antiproliferative activity against human PC-3 cells incubated for 72 hrs by colorimetric method; assay type: functional, cell-based; settings: PC-3, 72 h
Histone deacetylase 1 = Histone deacetylase 1 (Homo sapiens, UniProt Q13547); assay: Inhibition of HDAC1 (unknown origin)
Histone deacetylase 1, sequence (Q13547 whole entry, canonical isoform): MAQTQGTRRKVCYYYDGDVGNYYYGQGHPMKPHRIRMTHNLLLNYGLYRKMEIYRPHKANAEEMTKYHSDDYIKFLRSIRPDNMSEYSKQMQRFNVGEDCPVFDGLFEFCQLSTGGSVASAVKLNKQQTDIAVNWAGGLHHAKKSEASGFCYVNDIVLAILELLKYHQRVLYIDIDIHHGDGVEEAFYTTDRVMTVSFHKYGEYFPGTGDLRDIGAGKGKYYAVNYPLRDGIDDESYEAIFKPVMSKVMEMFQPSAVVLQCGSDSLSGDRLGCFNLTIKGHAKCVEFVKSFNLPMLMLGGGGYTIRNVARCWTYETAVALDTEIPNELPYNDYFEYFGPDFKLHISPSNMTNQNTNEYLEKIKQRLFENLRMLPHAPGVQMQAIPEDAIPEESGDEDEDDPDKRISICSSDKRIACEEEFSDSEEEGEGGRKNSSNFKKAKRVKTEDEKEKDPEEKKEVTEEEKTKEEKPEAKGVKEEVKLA

[1] = target: Phosphatidylinositol 4,5-bisphosphate 3-kinase catalytic subunit alpha isoform (Homo sapiens, UniProt P42336); assay: Inhibition of PI3Kalpha (unknown origin)
Phosphatidylinositol 4,5-bisphosphate 3-kinase catalytic subunit alpha isoform, sequence (P42336 whole entry, canonical isoform): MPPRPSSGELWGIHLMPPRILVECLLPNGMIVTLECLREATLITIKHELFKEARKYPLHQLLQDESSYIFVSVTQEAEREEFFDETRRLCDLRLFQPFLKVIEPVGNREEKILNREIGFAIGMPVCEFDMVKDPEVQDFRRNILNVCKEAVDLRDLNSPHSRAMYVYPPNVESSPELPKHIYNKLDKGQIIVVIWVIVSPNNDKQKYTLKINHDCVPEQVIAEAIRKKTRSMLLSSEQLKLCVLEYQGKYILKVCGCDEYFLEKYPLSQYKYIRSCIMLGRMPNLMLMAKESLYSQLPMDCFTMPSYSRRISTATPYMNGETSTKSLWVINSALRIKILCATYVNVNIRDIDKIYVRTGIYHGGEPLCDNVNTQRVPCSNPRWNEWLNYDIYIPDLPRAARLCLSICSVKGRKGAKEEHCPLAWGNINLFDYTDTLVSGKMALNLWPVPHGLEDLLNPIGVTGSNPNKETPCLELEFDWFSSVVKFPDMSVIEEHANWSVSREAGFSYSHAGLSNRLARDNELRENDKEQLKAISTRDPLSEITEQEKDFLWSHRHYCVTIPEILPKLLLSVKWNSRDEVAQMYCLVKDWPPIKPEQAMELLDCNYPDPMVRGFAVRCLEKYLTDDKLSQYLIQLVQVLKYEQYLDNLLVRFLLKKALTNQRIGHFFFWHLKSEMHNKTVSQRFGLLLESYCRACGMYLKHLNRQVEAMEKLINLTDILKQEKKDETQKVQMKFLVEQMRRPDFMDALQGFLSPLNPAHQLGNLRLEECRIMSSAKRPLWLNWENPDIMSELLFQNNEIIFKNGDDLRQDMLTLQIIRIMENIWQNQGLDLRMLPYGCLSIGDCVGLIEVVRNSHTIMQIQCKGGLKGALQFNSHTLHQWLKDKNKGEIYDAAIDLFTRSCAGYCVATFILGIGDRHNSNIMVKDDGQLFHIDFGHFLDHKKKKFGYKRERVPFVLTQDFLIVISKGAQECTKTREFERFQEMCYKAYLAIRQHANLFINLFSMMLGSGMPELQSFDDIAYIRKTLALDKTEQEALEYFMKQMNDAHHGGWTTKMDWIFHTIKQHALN

A2780 = assay: Antiproliferative activity against human A2780 cells; assay type: functional, cell-based
MCF7 [2] = assay: cells; settings: Homo sapiens
HeLa [3] = assay: Antiproliferative activity against human HeLa cells; assay type: functional, cell-based
HCT-116 [4] = assay: cells; settings: Homo sapiens
HepG2 [5] = assay: Antiproliferative activity against human HepG2 cells; assay type: functional, cell-based
[6] = target: T1, Protein deacetylase HDAC6 (Homo sapiens, UniProt Q9UBN7); assay: Inhibition of HDAC6 (unknown origin)
T1 sequence (Q9UBN7 whole entry): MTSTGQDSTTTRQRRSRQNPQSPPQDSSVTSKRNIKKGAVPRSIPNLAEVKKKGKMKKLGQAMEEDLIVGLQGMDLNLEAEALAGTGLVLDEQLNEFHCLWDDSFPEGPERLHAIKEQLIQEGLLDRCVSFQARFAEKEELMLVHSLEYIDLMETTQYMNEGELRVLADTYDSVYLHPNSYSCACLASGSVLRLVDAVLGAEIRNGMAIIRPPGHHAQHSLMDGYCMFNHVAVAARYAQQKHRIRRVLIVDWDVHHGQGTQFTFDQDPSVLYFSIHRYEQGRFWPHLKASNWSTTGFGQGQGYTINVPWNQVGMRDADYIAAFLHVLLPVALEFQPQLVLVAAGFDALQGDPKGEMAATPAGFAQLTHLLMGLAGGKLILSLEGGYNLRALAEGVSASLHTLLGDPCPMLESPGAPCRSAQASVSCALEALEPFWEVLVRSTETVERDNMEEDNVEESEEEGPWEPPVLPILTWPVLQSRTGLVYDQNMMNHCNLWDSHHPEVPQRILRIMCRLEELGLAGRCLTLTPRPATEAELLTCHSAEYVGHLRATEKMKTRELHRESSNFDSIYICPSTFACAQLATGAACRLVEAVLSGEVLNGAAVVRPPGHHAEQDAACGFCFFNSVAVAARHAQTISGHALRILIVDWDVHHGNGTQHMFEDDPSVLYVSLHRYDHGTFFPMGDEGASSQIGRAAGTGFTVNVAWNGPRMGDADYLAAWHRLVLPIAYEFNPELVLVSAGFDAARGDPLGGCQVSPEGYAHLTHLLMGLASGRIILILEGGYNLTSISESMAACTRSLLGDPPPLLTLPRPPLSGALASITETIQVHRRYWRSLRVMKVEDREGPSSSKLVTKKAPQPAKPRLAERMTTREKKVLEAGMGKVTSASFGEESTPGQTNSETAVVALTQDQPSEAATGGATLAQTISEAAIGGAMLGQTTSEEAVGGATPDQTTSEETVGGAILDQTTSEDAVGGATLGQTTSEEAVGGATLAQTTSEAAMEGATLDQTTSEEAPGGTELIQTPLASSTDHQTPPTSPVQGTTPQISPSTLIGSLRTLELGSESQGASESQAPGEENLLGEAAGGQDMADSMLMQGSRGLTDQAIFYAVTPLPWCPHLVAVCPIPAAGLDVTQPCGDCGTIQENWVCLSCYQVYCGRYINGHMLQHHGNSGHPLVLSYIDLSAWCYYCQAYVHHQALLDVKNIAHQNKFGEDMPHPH

A549 [7] = assay: Antiproliferative activity against human A549 cells measured after 72 hrs by MTT assay; assay type: functional, cell-based; settings: A549, 72 h
MCF7 [8] = assay: Antiproliferative activity against human MCF7 cells measured after 72 hrs by MTT assay; assay type: functional, cell-based; settings: MCF7, 72 h
HCT-116 [9] = assay: Antiproliferative activity against human HCT-116 cells measured after 72 hrs by MTT assay; assay type: functional, cell-based; settings: HCT-116, 72 h
A549 [10] = assay: Antiproliferative activity against human A549 cells
HeLa [11] = assay: Antiproliferative activity against human HeLa cells assessed as cell growth inhibition by SRB assay; assay type: functional
HeLa [12] = assay: Antiproliferative activity against human HeLa cells measured after 24 hrs by MTT assay; assay type: functional, cell-based
HCT-116 [13] = assay: Antiproliferative activity against human HCT-116 cells measured after 24 hrs by MTT assay; assay type: functional, cell-based; settings: HCT-116, 24 h
MCF7 [14] = assay: Antiproliferative activity against human MCF7 cells assessed as cell growth inhibition by SRB assay; assay type: functional
HepG2 [15] = assay: Antiproliferative activity against human HepG2 cells measured after 24 hrs by MTT assay; assay type: functional, cell-based; settings: HepG2, 24 h
K562 = assay: Antiproliferative activity against human K562 cells assessed as cell growth inhibition by SRB assay; assay type: functional
A549 [16] = assay: Antiproliferative activity against human A549 cells assessed as cell growth inhibition by SRB assay; assay type: functional
MDA-MB-231 = assay: Antiproliferative activity against human MDA-MB-231 cells
Jurkat = assay: Antiproliferative activity against human Jurkat cells; assay type: functional, cell-based
HT-29 = assay: Antiproliferative activity against human HT-29 cells; assay type: functional, cell-based

## O=C(NO)c1csc(NS(=O)(=O)Nc2ccc(Cl)cc2)n1
SW-620
  IC50: 1450 nM
Histone deacetylase
  IC50: 36 nM
NCI-H23
  IC50: 1450 nM
PC-3
  IC50: 1450 nM

## COc1ncc(-c2ccc3ncc(C(=O)NCCCCCCC(=O)NO)cc3c2)cc1NS(=O)(=O)c1ccc(F)cc1F
Histone deacetylase 1
  IC50: 4.8 nM
[1]
  IC50: 1.3 nM
A2780
  IC50: 2310 nM

## COc1ccc2cc(C(=O)Oc3cccc(/C=C/C(=O)NO)c3)c(=O)oc2c1
MCF7 [2]
  IC50: 6910 nM
HeLa [3]
  IC50: 6910 nM
HCT-116 [4]
  IC50: 6910 nM
HepG2 [5]
  IC50: 6910 nM

## COc1cc(OCCCCCCC(=O)NO)ccc1C1c2ccc(O)cc2CCN1CC(C)(C)F (configuration not stated)
MCF7 [2]
  IC50: 1960 nM
[6]
  IC50: 26 nM

## CC(C)(C)OC(=O)Nc1cccc(-c2cc(C(=O)NCCCCCCC(=O)NO)no2)c1
Histone deacetylase
  IC50: 5.8 nM

## COc1cc2c(Oc3ccc(NC(=O)C4(C(=O)Nc5ccc(F)cc5)CC4)cc3F)ccnc2cc1OCCCN1CCOCC1 [FORETINIB]
A549 [7]
  IC50: 520 nM
MCF7 [8]
  IC50: 520 nM
HCT-116 [9]
  IC50: 520 nM

## CC/C(=C(\c1ccccc1)c1ccc(OCCN(C)C)cc1)c1ccccc1 [TAMOXIFEN]
MCF7 [2]
  IC50: 22500 nM

## CN1c2ccc(NCc3ccc(/C=C/C(=O)NO)cc3)cc2C(=O)N2CCc3c([nH]c4ccc(O)cc34)C21 (configuration not stated)
MCF7 [2]
  IC50: 180 nM
A549 [10]
  IC50: 180 nM

## CCN(CC)c1ccc2cc(C(=O)Oc3cccc(/C=C/C(=O)NO)c3)c(=O)oc2c1
MCF7 [2]
  IC50: 7010 nM
HeLa [3]
  IC50: 7010 nM
HCT-116 [4]
  IC50: 7010 nM
HepG2 [5]
  IC50: 7010 nM

## CN1c2ccc(NCC3CCN(c4ncc(C(=O)NO)cn4)CC3)cc2C(=O)N2CCc3c([nH]c4ccc(O)cc34)C21 (configuration not stated)
MCF7 [2]
  IC50: 230 nM
A549 [10]
  IC50: 230 nM

## COc1ncc(-c2ccc3nccc(C(=O)NCCCCCC(=O)NO)c3c2)cc1NS(=O)(=O)c1cc(F)cc(F)c1
Histone deacetylase 1
  IC50: 4.8 nM
[1]
  IC50: 1.3 nM
A2780
  IC50: 2620 nM

## O=C(NO)c1csc(NS(=O)(=O)Nc2ccccc2)n1
SW-620
  IC50: 1450 nM
NCI-H23
  IC50: 1450 nM
PC-3
  IC50: 1450 nM

## COc1cc2c(Oc3ccc(NC(=O)C4CCN(c5cccc(F)c5)C4=O)cc3)ccnc2cc1OCCCCCCC(=O)NO (configuration not stated)
A549 [7]
  IC50: 280 nM
MCF7 [8]
  IC50: 280 nM
HCT-116 [9]
  IC50: 280 nM

## COc1cccc2c1C(=O)c1c(O)c3c(c(O)c1C2=O)C[C@@](O)(C(=O)CO)C[C@@H]3O[C@H]1C[C@H](N)[C@H](O)[C@H](C)O1 [DOXORUBICIN]
HeLa [11]
  GI50: < 10000 nM
HeLa [12]
  IC50: 4170 nM
HCT-116 [13]
  IC50: 4170 nM
MCF7 [14]
  GI50: < 10000 nM
HepG2 [15]
  IC50: 4170 nM
K562
  GI50: < 10000 nM
A549 [16]
  GI50: < 10000 nM

## COc1ncc(-c2ccc3nccc(C(=O)NCCCCC(=O)NO)c3c2)cc1NS(=O)(=O)c1cc(F)cc(F)c1
Histone deacetylase 1
  IC50: 4.8 nM
[1]
  IC50: 1.3 nM
A2780
  IC50: 2150 nM

## Cc1cnc(Nc2ccc(OCCN3CCCC3)cc2)nc1Nc1cccc(S(=O)(=O)NC(C)(C)C)c1 [FEDRATINIB]
MDA-MB-231
  IC50: 560 nM
Jurkat
  IC50: 560 nM
A549 [10]
  IC50: 560 nM
HepG2 [5]
  IC50: 560 nM

## Cc1ccc(NS(=O)(=O)Nc2nc(C(=O)NO)cs2)cc1
SW-620
  IC50: 1450 nM
Histone deacetylase
  IC50: 36 nM
NCI-H23
  IC50: 1450 nM
PC-3
  IC50: 1450 nM

## COc1ccc2c(c1)[nH]c1c(C)nccc12 [HARMINE]
HT-29
  IC50: > 20000 nM
HCT-116 [4]
  IC50: > 20000 nM
A549 [10]
  IC50: > 20000 nM
HepG2 [5]
  IC50: > 20000 nM
